A short description of one data set: Solubility in water. The format is physicochemical.
The next data set concerns TNFα released by PBMCs. Kind of data set: Inhibition of TNFα released by PBMCs after LPS stimulation in vitro (ELISA). The format is cell-based, human. To be noted: for Inhibition Degree (%): TNFα inhibition rate, LPS 0.1 μg/ml-stimulated PBMCs, compound concentration 3.0 μM; for EC50: concentration giving 50% TNFα inhibition, LPS-stimulated PBMCs, nonlinear regression. An excerpt:
Pharmacological Research: Effects of Monocyte (PBMC) Stimulation by LPS on TNFα
Cytokine TNFα released by PBMCs in peripheral blood after lip polysaccharide (LPS) stimulation in vitro was studied. The followings are research methods of cytokine TNFα released by PBMCs, which are inhibited by compounds of the invention.
PBMCs were obtained from blood of at least three volunteers after heparin treatment, by the method of gradient extraction. PBMCs were collected and washed with 1640 culture medium three times (10% calf serum, 2 mM L-glutamine, […] mercaptoethanol, 50 μg/ml streptomycin, 50 U/ml penicillin). The above PBMCs were placed onto a 24-well cell culture plate. The concentration was adjusted to 1×10^6 cells/ml with 1640 culture medium. Test compounds were dissolved in dimethylsulfoxide at an appropriate concentration. The resultant solution was added to the above cell culture medium and the culture plate was placed in a CO2 incubator (5% CO2, 90% humidity) for 1 hour. Then, LPS (Sigma) was added to adjust the concentration to 0.1 μg/ml (except for contrast). After 20 hrs of incubation, the content of TNFα in supernatant of the above PBMC culture medium was determined by ELISA kit (America Genzyme Co) using standard method. The measured value of the control (no active compound), and the measured value of the tested compounds was used to calculate the TNFα inhibition rate. The concentration of compounds giving a 50% TNFα inhibition (IC50 value) was calculated by nonlinear regression analysis. Each concentration was determined twice and an average value was obtained.

[1] abbreviates: Homo sapiens, PBMC, read-out: Inhibition Degree (%).

As usually defined, the inhibition is the share of the control response that was lost under treatment. One may read the EC50 as the concentration needed to bring the measured effect to its halfway point.

Take “2-(1-(2-hydroxyethyl)-2,6-dioxopiperidin-3-yl)isoindolin-1,3-dione 2-(1-piperidyl)acetate hydrochloride [Example 14]”: the Solubility in water result in the data set “Solubility in water” was “more than 100 mg/mL”.
Take “2-(1-(2-hydroxyethyl)-2,6-dioxopiperidin-3-yl)isoindolin-1,3-dione 2-(diethylamino)acetate hydrochloride [Example 10]”: the Solubility in water result in “Solubility in water” is recorded as “higher than 100 mg/mL”.
For “4,5,6,7-tetrafluoro-2-(1-(2-methoxyethyl)-2,6-dioxopiperidin-3-yl)-4-nitroisoindoline-1,3-dione [Example 31]”, the “Inhibition Degree (%)” value in the data set with TNFα released by PBMCs came out at 62%.
On the same count and under the same terms, in the case of “4-fluoro-2-(1-(2-methoxyethyl)-2,6-dioxopiperidin-3-yl)-4-nitroisoindoline-1,3-dione [Example 30]” it was 58%.
On to `O=C1CCC(N2C(=O)c3ccccc3C2=O)C(=O)N1CCO` (stereo not drawn) [Example 1, 2-(1-(2-Hydroxyethyl)-2,6-dioxopiperidin-3-yl)isoindoline-1,3-dione], for which the inhibition at 3 µM with TNFα released by PBMCs (setting [1]) worked out at 70%.
For `CCN(CC)CC(=O)OCCN1C(=O)CCC(N2C(=O)c3ccccc3C2=O)C1=O` (stereo not drawn) [Example 9, 2-(1-(2-hydroxyethyl)-2,6-dioxopiperidin-3-yl)isoindolin-1,3-dione 2-(diethylamino)acetate], the “Inhibition Degree (%)” value in the data set on TNFα released by PBMCs was 20%.
With `O=C1CCC(N2C(=O)c3ccccc3C2=O)C(=O)N1CCCCO` (stereo not drawn) [Example 22, 2-(1-(4-hydroxybutyl)-2,6-dioxopiperidin-3-yl)isoindoline-1,3-dione], the inhibition at 3 µM with TNFα released by PBMCs (setting [1]) was 18%.
As to `O=C1CCC(N2C(=O)c3cccc([N+](=O)[O-])c3C2=O)C(=O)N1CCO` (stereo not drawn) [Example 24, 2-(1-(2-hydroxyethyl)-2,6-dioxopiperidin-3-yl)-4-nitroisoindoline-1,3-dione], the inhibition at 3 µM with TNFα released by PBMCs (setting [1]) was determined as 28%.
With `Nc1cccc2c1C(=O)N(C1CCC(=O)N(CCO)C1=O)C2=O` (stereo not drawn) [Example 26, 4-amino-2-(1-(2-hydroxyethyl)-2,6-dioxopiperidin-3-yl)isoindoline-1,3-dione], the EC50 with TNFα released by PBMCs (Homo sapiens, PBMC) stood at 0.25 µM. Moreover, in the data set on TNFα released by PBMCs (setting [1]), the inhibition at 3 µM worked out at 95%.
The like results for `COCCN1C(=O)CCC(N2C(=O)c3cccc(N)c3C2=O)C1=O` (stereo not drawn) [Example 27, 4-amino-2-(1-(2-methoxyethyl)-2,6-dioxopiperidin-3-yl)isoindoline-1,3-dione] were, in that order, 0.3 µM and 92%.
Turning to `COCCN1C(=O)CCC(N2C(=O)c3cccc(NC(C)=O)c3C2=O)C1=O` (stereo not drawn) [Example 28, N-(2-(1-(2-methoxyethyl)-2,6-dioxopiperidin-3-yl)-1,3-dioxoisoindolin-7-yl)acetamide], the inhibition at 3 µM with TNFα released by PBMCs (setting [1]) was determined as 78%.
Turning to `COCCN1C(=O)CCC(N2C(=O)c3cccc(N(C)C)c3C2=O)C1=O` (stereo not drawn) [Example 29, 4-(dimethylamino)-2-(1-(2-methoxyethyl)-2,6-dioxopiperidin-3-yl)isoindoline-1,3-dione], in the data set with TNFα released by PBMCs (setting [1]), the inhibition at 3 µM is 64%.
Take `O=C1CCC(N2C(=O)c3ccccc3C2=O)C(=O)N1` (stereo not drawn) [Thalidomide, reference compound]: the inhibition at 100 µM in the data set on TNFα released by PBMCs (setting [1]) is 22%.

The values above are taken from patent publication US9669015B2, “Piperidine-2, 6-dione derivatives and their use as tumor necrosis factor inhibitors” (Tianjin Hemay Bio-Tech Co., Ltd., priority 2005, dated 2017).
